Laboratory results taken from patent US4487831A, “Process for the conversion of cellulose to glucose” (Research Corporation, priority 1982, dated 1984).
Where two headings read alike, the source gives them in different places.

What was measured:
[1] = tested on: cellobiase from Trichoderma reesei; settings: Table 3; substrate cellobiose; as reported in the literature; cited from earlier work
[2] = tested on: purified cellobiase from Aspergillus terreus (ATCC 20514); assay: Km of purified cellobiase for cellobiose; type: biochemical; settings: substrate cellobiose
Experimental: The activity on cellobiose was determined by two different methods. In the first method 0.4 ml of the substrate, 12.5 mM cellobiose in 0.0625M sodium citrate buffer (pH 4.8), was preheated to 50° C., then 0.1 ml of the preheated enzyme solution was added to the substrate and the tubes stoppered. Each sample was incubated for 1.5 minutes placed in a boiling water bath for 30 seconds and then immediately cooled in an ice bath. This reaction mixture was added to 5 ml of the glucose oxidase reagent from a glucose assay kit (Sigma Chemical Co.) and the amount of glucose produced from cellobiose hydrolysis was determined spectrophometrically.
In the second method the amount of glucose produced was measured on a high pressure liquid chromatograph. The cellobiose substrate consisted of 0.03M cellobiose in 0.075M sodium citrate buffer (pH 4.8). The substrate and enzyme solution was preheated to 50° C., then 0.25 ml of the enzyme solution was added to 0.5 ml of the substrate and incubated for 10 minutes. […]
Using cellobiose as the substrate, the purified cellobiase enzyme from Aspergillus terreus was capable of producing 215 micromoles of glucose from cellobiose per minute per milligram of enzyme protein. […] The specific activity of our purified cellobiase is expressed as 215 units per mg protein. […]

[3] = tested on: cellobiase from Aspergillus phoenicis; settings: Table 3; substrate cellobiose; as reported in the literature; cited from earlier work
[4] = target: purified cellobiase from Aspergillus terreus (ATCC 20514); assay: Glucose inhibition of purified cellobiase, PNPG as substrate; type: biochemical
Experimental: The β-glucosidase activity was routinely determined using p-nitrophenyl-β-D-glucoside (PNPG) as the substrate. Two milliliters of a 10 mM PNPG solution in 0.05M sodium citrate buffer solution (pH 4.8) were heated to 50° C. Then […] of the enzyme solution was added to the substrate and incubated for 15 minutes. After incubation, 3 ml of 1.0M aqueous sodium carbonate solution were added to stop the reaction and develop the color. The absorbance was read at 400 nm and the amount of p-nitrophenol liberated was determined from a standard curve. The time of incubation varied depending on the activity of the enzyme preparation tested. A unit (IU) of activity was defined as the amount of enzyme required to liberate one micromole of p-nitrophenol per minute from the substrate.
Glucose is a competitive inhibitor of the cellobiase enzyme from Aspergillus terreus. […] The Ki is the concentration of inhibitor required to slow the reaction down to one-half its maximum velocity, therefore, the larger the Ki the less inhibitory the inhibitor is.

[5] = target: cellobiase from Phanerochaete chrysosporium; settings: Table 4; inhibitor glucose; type of inhibition competitive; reference (3) Smith and Gold 1979; cited from earlier work
[6] = target: cellobiase from Lenzites trabes; settings: Table 4; inhibitor glucose; type of inhibition noncompetitive; reference (2) Herr et al 1978; cited from earlier work
[7] = target: T1, cellobiase from Alcaligenes faecalis (Agrobacterium sp., UniProt P12614); settings: read-out: Ki (molar); Table 4; inhibitor glucose; type of inhibition competitive; reference (1) Ivanova et al 1980; cited from earlier work
T1 sequence (P12614 1-459): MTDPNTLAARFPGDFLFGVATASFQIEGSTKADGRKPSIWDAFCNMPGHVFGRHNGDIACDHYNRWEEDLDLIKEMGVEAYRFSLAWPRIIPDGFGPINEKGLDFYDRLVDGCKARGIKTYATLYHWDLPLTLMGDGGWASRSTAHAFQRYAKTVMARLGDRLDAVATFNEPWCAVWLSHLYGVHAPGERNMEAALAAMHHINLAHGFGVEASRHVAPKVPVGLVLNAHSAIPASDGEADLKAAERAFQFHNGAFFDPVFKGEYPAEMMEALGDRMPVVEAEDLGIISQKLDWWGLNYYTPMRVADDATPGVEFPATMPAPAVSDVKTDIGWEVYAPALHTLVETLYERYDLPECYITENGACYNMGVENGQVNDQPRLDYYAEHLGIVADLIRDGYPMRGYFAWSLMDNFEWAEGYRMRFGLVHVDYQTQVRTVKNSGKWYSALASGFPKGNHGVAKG

Row | SMILES | Km [1] [µM] | Km ([2]; Table 3, read-out: Km) [µM] | Km ([2]; purified enzyme, pH 4.8, 50° C., read-out: affinity (Km) for cellobiose) [µM] | Km [3] [µM] | Ki ([4]; Table 4, inhibitor glucose, type of inhibition competitive, read-out: Ki) [mM] | Ki ([4]; competitive inhibitor, p-nitrophenyl-β-D-glucoside as substrate, read-out: Ki dissociation constant for glucose) [mM] | Ki [5] [mM] | Ki [6] [mM] | Ki [7] [mM]
1 | OC[C@H]1O[C@@H](O[C@H]2[C@H](O)[C@@H](O)C(O)O[C@@H]2CO)[C@H](O)[C@@H](O)[C@@H]1O (stereo partly drawn) [cellobiose] | 3300 | 400 | 400 | 750 |  |  |  |  | 
2 | OC[C@H]1OC(O)[C@H](O)[C@@H](O)[C@@H]1O (stereo partly drawn) [glucose] |  |  |  |  | 3.5 | 3.5 | 0.5 | 2.7 | 3
